Source: patent US12492380B2, “Methods for the production of hepatocytes” (FUJIFILM Cellular Dynamics, Inc., priority 2019, dated 2025)

Assays:
iPSCs = assay: CHIR99021 preconditioning/supplementation during iPSC to hepatocyte differentiation; format: cell-based, human; conditions: supplementation midway through differentiation
Protocol: iPS cells were maintained on […] ® in E8 Medium under hypoxic conditions (5% 02), using 0.5 mM EDTA for splitting approximately every 4-5 days. The iPSC cultures were acclimatized to hypoxia for around 10 passages before the onset of hepatocyte differentiation. Starting iPS cell cultures were seeded at 15-20 k/cm^2 on […] ®-coated 6-well plates or T150 flasks. Two days after seeding, media was changed to preconditioning medium (PCM) and fed daily for two-three days. Endoderm induction was performed by placing the cells in media containing activin (DE Day 0 Medium, also referred to as T0 medium). On days 1-2, media was changed to DE Day 1-2 Medium (also referred to as T1-T2 medium) containing activin, along with low concentrations of BMP4, VEGF and FGF2 for the next two days. From day 3-9, media was changed to DE Day 3-9 (also referred to as T3-T6 medium) with the base medium SFD, supplemented with Activin, BMP4 and VEGF. On day 10, a sampling of the culture was performed for staining the percentage of definitive endoderm cells. […] Surface staining was performed to quantify the levels of Tra181, CXCR4, CD117 by flow cytometry. […]
Alternately, the cell individualized cell suspension was placed in media for aggregate formation. […] Intracellular staining to quantify the levels of AAT, ASGPR, Albumin, and matched isotypes was performed via flow cytometry. […]

ZAP-70 = target: T1, ZAP-70 (Homo sapiens, UniProt P43403); conditions: cited from earlier work
T1 sequence (P43403 1-619): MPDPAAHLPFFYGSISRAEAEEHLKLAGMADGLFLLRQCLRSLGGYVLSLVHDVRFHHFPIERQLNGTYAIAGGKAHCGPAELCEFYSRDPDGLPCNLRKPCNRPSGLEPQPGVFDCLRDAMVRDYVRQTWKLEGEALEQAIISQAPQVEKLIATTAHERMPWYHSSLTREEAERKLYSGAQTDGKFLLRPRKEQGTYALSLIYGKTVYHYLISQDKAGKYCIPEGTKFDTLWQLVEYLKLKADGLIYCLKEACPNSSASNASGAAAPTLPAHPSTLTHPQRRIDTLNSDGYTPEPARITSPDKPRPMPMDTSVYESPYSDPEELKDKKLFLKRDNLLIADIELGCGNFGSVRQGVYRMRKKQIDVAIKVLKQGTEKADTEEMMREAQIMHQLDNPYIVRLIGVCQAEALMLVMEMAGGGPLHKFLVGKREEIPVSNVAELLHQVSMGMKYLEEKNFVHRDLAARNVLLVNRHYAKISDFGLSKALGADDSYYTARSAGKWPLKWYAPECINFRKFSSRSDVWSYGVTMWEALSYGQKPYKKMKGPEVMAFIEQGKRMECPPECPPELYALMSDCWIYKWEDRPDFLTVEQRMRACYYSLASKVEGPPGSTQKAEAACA

type I TGF-β receptors = conditions: direct inhibition, unrelated to Src signaling; cited from earlier work
iPSC-derived hepatocytes = assay: Stage 3 maturation of thawed end of Stage 2 hepatocytes (morphology, AAT and albumin by flow cytometry); format: cell-based, human
Protocol: Thawing Cryopreserved hepatocytes at Stage 2 of differentiation and maturation to Stage 3 hepatocytes post thaw: Cryopreserved hepatocytes at the end of stage 2 were thawed in Stage 3 media. The cells were plated on Collagen I coated plates without spinning in the presence of a rock inhibitor. The media was gently changed at the end of 24 hours post plating. The maturation media contained SB/DAPT or Src kinase inhibitors and the cells were allowed to differentiate to additional 8-10 days with media exchanges every 48 hrs. The end stage cells were analyzed for hepatocyte morphology and the presence of AAT and albumin expression quantified by flow cytometry.
Generation of Liver organoids: Aggregates consisting of hepatocytes and other liver relevant cell types—specifically macrophages, MSC, and endothelial cells—designed to mimic liver organoid culture were established and maintained for 5-10 days. Aggregates were established in hepatocyte Stage 3 media (Table 2) supplemented with 1 μM of H1152, with the non-hepatocyte cells undergoing adaptation to Stage 3 media prior to initiation of co-cultures. For co-culture initiation, end of Stage 1 cells Hepatocytes were recovered from cryopreservation and aggregated at 500,000 cells/mL in Stage 2 media (Table 2) supplemented with 1 μM of rho kinase (rock) inhibitor H1152. […]

Row | maturation of hepatocytes in co-culture (iPSC-derived hepatocytes; in the presence of MSCs, macrophages and endothelial cells) | Structure (SMILES) | expansion of cells during hepatoblast to hepatocyte transition (iPSCs) | IC50 (ZAP-70) [nM] | IC50 (type I TGF-β receptors) [nM] | maturation of hepatocytes (iPSC-derived hepatocytes; PP1 substituted for SB431542/DAPT in Stage 3 maturation media, post thaw, preliminary data)
1 |  | Cc1c[nH]c(-c2cnc(NCCNc3ccc(C#N)cn3)nc2-c2ccc(Cl)cc2Cl)n1 [CHIR99021] | effective in promoting the expansion of cells |  |  | 
2 | enhances the maturation of Hepatocytes | Cc1ccc(-c2nn(C(C)(C)C)c3ncnc(N)c23)cc1 [PP1] |  | ≥ 600 | 50 | facilitated the maturation of hepatocytes
